Experimental data as given in ChEMBL document CHEMBL5625278 (Bioorg Med Chem Lett, 2024).
pKi: −log10 of the molar value.

Assay: Binding affinity to LAR C1536S mutant (unknown origin) assessed as inhibition constant by Michaelis-Menten analysis
Set-up: species or system Homo sapiens

CC1(C)Cc2c(O)c(C=O)c3c(c2C1)C(=O)OC(O)C3 (stereo unspecified) [ILLUDALIC ACID]
pKi: 5.15
